{"source": "paper PMC9602792", "about": "“Preclinical evaluation of the epithelial sodium channel inhibitor AZD5634 and implications on human translation” (American Journal of Physiology - Lung Cellular and …, 2022)", "tested_on": "Cftr^−/− rats", "assay": "μOCT of trachea and lungs excised en bloc from Cftr-knockout rats treated in vivo", "parameters": "species or system rat", "conditions": "seven 200-μL doses of 54 µM by oropharyngeal aspiration over 4 days; not significant vs vehicle", "method": "μOCT imaging and analysis were conducted in vitro and ex vivo as detailed in previous publications ([2], [39]–[41]). Briefly, the μOCT system uses light reflectance to produce video-rate (40 frames/s and 512 lines/frame), high-resolution images (1 micron) captured in real-time and without disruption of sample tissue, permitting simultaneous interrogation of key parameters of airway microanatomy without the addition of exogenous particles or dyes. Following imaging of HBEC cultures and of excised trachea and lungs, images were assessed to obtain quantitative measurements of mucociliary transport (MCT) rate, ASL depth, and ciliary beat frequency (CBF). MCT rates were calculated by analyzing the distance traveled by native particles in the mucus layer over time across multiple frames. Direct geometric measurement of layer thickness (Image J software) yielded ASL depths. CBF was determined by using custom code developed in Matlab (Mathworks, Natick, MA) to quantify the reflectance of beating cilia by Fourier analysis. […] The results for each trachea and lung sample reflected an average of measurements from images obtained from a minimum of six controlled points along the tracheal length, using the cranial end as a reference.\nSix-month-old Cftr-knockout rats (female and male) were treated with seven 200-μL doses of either 54 µM AZD5634 or vehicle control, delivered by oropharyngeal aspiration, over 4 days (two doses daily for 3 days and a single dose on the 4th day, 2 h before euthanasia). Rats were euthanized by intraperitoneal injection of pentobarbital sodium (Fatal Plus, 100 mg/kg), and trachea and lungs were excised en bloc and dissected along the dorsal surface from the larynx to the terminal end of the main stem bronchi. […]\nDescriptive statistics were calculated and means compared using unpaired or paired t tests, or ANOVA, with post hoc analyses conducted for multiple comparisons where appropriate. […]"}
{"substance": "AZD5634", "values": [{"measurement": "ASL depth", "value": "15.8 ± 2.1", "unit": "µm"}, {"measurement": "MCT rate", "value": "0.3 ± 0.1", "unit": "mm/min"}, {"measurement": "ciliary beating (CBF)", "value": "7.9 ± 0.7", "unit": "Hz"}]}
